How the values were obtained:
[1] = Hepatoprotective activity in rat WB-F344 cells assessed as inhibition of D-galactosamine-induced toxicity at 0.1 mM by MTT method relative to control; assay type: functional
[2] = Cytotoxicity against rat WB-F344 cells assessed as cell survival rate at 0.1 mM by MTT method relative to control; assay type: cell-based; conditions: read-out: Activity

SMILES	inhibition at 100 µM [1] [%]	viability at 100 µM [2] [%]
C=C1[C@H]2C[C@H]2[C@]2(C)[C@H](O)[C@]3(O[C@@H]4O[C@H](CO)[C@@H](O)[C@H](O)[C@H]4O)OC(=O)C(C)=C3C[C@@H]12	26	45.5
COC(=O)c1cc(OC)c2c(c1-c1c(CO)cc(OC)c3c1OCO3)OCO2 [BICYCLOL]	27.4	46.6
CC1=C2C[C@@H]3[C@@](C)(C=C2OC1=O)[C@@H]1C[C@@H]1[C@]3(O)CO[C@@H]1O[C@H](CO)[C@@H](O)[C@H](O)[C@H]1O [CHLORANOSIDE A]	38.2	54.5
C=C1CC[C@H](O[C@@H]2O[C@H](CO)[C@@H](O)[C@H](O)[C@H]2O)[C@]2(C)C[C@@H]3OC(=O)C(C)=C3C[C@@H]12 [SARCAGLABOSIDE A]	28.7	47.5
C=C1C=C[C@H](O[C@@H]2O[C@H](CO)[C@@H](O)[C@H](O)[C@H]2O)[C@]2(C)C[C@@H]3OC(=O)C(C)=C3C[C@@H]12 [SARCAGLABOSIDE B]	65.9	74.9
C=C[C@]1(C)C[C@@H]2OC(=O)C(C)=C2C[C@H]1C(=C)CO[C@@H]1O[C@H](CO)[C@@H](O)[C@H](O)[C@H]1O [SARCAGLABOSIDE C]	36.1	53
C=C[C@]1(C)C[C@@H]2OC(=O)C(C)=C2C[C@H]1C(=C)CO[C@@H]1O[C@H](CO[C@@H]2OC[C@](O)(CO)[C@H]2O)[C@@H](O)[C@H](O)[C@H]1O [SARCAGLABOSIDE D]	27	46.3
CC1=C2C/C=C(\CO[C@@H]3O[C@H](CO[C@@H]4OC[C@](O)(CO)[C@H]4O)[C@@H](O)[C@H](O)[C@H]3O)CC/C=C(\C)C[C@@H]2OC1=O [SARCAGLABOSIDE E]	21.7	42.4

Source: ChEMBL document CHEMBL1157320, “Hepatoprotective sesquiterpene glycosides from Sarcandra glabra” (J Nat Prod, 2006)
